Measured values published in PubChem BioAssay (NCI).
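Growth conditions: 96-well plates. Treatment: test compound, 48 hours, 5 concentrations. Analysis: linear interpolation between bracketing concentrations; unreached endpoints set to highest concentration. GI50 is the concentration that inhibits growth by half. TGI marks complete inhibition of growth.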

How the values were obtained:
Test in all cases: growth of human tumour cells (NCI), 48 h
DU-145 prostate = tested on: DU-145 prostate
OVCAR-3 ovarian = tested on: OVCAR-3 ovarian
SF-268 CNS = tested on: SF-268 CNS
NCI-H522 lung = tested on: NCI-H522 lung
OVCAR-5 ovarian = tested on: OVCAR-5 ovarian
HCC-2998 colon = tested on: HCC-2998 colon
SF-539 CNS = tested on: SF-539 CNS
NCI/ADR-RES ovarian = tested on: NCI/ADR-RES ovarian
U251 CNS = tested on: U251 CNS
MDA-MB-231 breast = tested on: MDA-MB-231 breast
CAKI-1 renal = tested on: CAKI-1 renal
SNB-19 CNS = tested on: SNB-19 CNS
SK-MEL-2 melanoma = tested on: SK-MEL-2 melanoma
TK-10 renal = tested on: TK-10 renal
786-0 renal = tested on: 786-0 renal
MDA-MB-435 = tested on: MDA-MB-435
SF-295 CNS = tested on: SF-295 CNS
NCI-H460 lung = tested on: NCI-H460 lung
T-47D breast = tested on: T-47D breast
M14 melanoma = tested on: M14 melanoma
K-562 leukemia = tested on: K-562 leukemia
HS 578T breast = tested on: HS 578T breast
PC-3 prostate = tested on: PC-3 prostate
OVCAR-4 ovarian = tested on: OVCAR-4 ovarian
KM12 colon = tested on: KM12 colon
BT-549 breast = tested on: BT-549 breast
OVCAR-8 ovarian = tested on: OVCAR-8 ovarian
EKVX NSCLC = tested on: EKVX NSCLC
UO-31 renal = tested on: UO-31 renal
SK-MEL-28 melanoma = tested on: SK-MEL-28 melanoma
SK-MEL-5 melanoma = tested on: SK-MEL-5 melanoma
RPMI-8226 leukemia = tested on: RPMI-8226 leukemia
SW-620 colon = tested on: SW-620 colon
HOP-62 NSCLC = tested on: HOP-62 NSCLC
HCT-15 colon = tested on: HCT-15 colon
RXF 393 renal = tested on: RXF 393 renal
A549 NSCLC = tested on: A549 NSCLC
COLO 205 colon = tested on: COLO 205 colon
SK-OV-3 ovarian = tested on: SK-OV-3 ovarian
SNB-75 CNS = tested on: SNB-75 CNS
SR leukemia = tested on: SR leukemia
HCT-116 colon = tested on: HCT-116 colon
HL-60(TB) leukemia = tested on: HL-60(TB) leukemia
NCI-H226 lung = tested on: NCI-H226 lung
MOLT-4 leukemia = tested on: MOLT-4 leukemia
IGROV1 ovarian = tested on: IGROV1 ovarian
UACC-62 melanoma = tested on: UACC-62 melanoma
UACC-257 melanoma = tested on: UACC-257 melanoma
LOX IMVI melanoma = tested on: LOX IMVI melanoma
SN12C renal = tested on: SN12C renal
ACHN renal = tested on: ACHN renal
A498 renal = tested on: A498 renal
HT29 colon = tested on: HT29 colon
NCI-H23 lung = tested on: NCI-H23 lung
MCF7 breast = tested on: MCF7 breast
HOP-92 NSCLC = tested on: HOP-92 NSCLC
CCRF-CEM leukemia = tested on: CCRF-CEM leukemia

## C[C@@H]1O[C@@H](OC[C@H]2O[C@@H](OCCc3ccc(O)c(O)c3)[C@H](O)[C@@H](O)[C@@H]2OC(=O)/C=C/c2ccc(O)c(O)c2)[C@H](O)[C@H](O)[C@H]1O
DU-145 prostate
  GI50: 36.8 µM
  TGI: > 100 µM
OVCAR-3 ovarian
  GI50: > 100 µM
  TGI: > 100 µM
SF-268 CNS
  GI50: > 100 µM
  TGI: > 100 µM
NCI-H522 lung
  GI50: > 100 µM
  TGI: > 100 µM
OVCAR-5 ovarian
  GI50: > 100 µM
  TGI: > 100 µM
HCC-2998 colon
  GI50: 69.3 µM
  TGI: > 100 µM
SF-539 CNS
  GI50: > 100 µM
  TGI: > 100 µM
NCI/ADR-RES ovarian
  GI50: 74.3 µM
  TGI: > 100 µM
U251 CNS
  GI50: > 100 µM
  TGI: > 100 µM
MDA-MB-231 breast
  GI50: > 100 µM
  TGI: > 100 µM
CAKI-1 renal
  GI50: > 100 µM
  TGI: > 100 µM
SNB-19 CNS
  GI50: > 100 µM
  TGI: > 100 µM
SK-MEL-2 melanoma
  GI50: > 100 µM
  TGI: > 100 µM
TK-10 renal
  GI50: > 100 µM
  TGI: > 100 µM
786-0 renal
  GI50: > 100 µM
  TGI: > 100 µM
MDA-MB-435
  GI50: > 100 µM
  TGI: > 100 µM
SF-295 CNS
  GI50: > 100 µM
  TGI: > 100 µM
NCI-H460 lung
  GI50: > 100 µM
  TGI: > 100 µM
T-47D breast
  GI50: > 100 µM
  TGI: > 100 µM
M14 melanoma
  GI50: > 100 µM
  TGI: > 100 µM
K-562 leukemia
  GI50: > 100 µM
  TGI: > 100 µM
HS 578T breast
  GI50: > 100 µM
  TGI: > 100 µM
PC-3 prostate
  GI50: > 100 µM
  TGI: > 100 µM
OVCAR-4 ovarian
  GI50: > 100 µM
  TGI: > 100 µM
KM12 colon
  GI50: > 100 µM
  TGI: > 100 µM
BT-549 breast
  GI50: 24.5 µM
  TGI: 54.3 µM
OVCAR-8 ovarian
  GI50: > 100 µM
  TGI: > 100 µM
EKVX NSCLC
  GI50: > 100 µM
  TGI: > 100 µM
UO-31 renal
  GI50: > 100 µM
  TGI: > 100 µM
SK-MEL-28 melanoma
  GI50: > 100 µM
  TGI: > 100 µM
SK-MEL-5 melanoma
  GI50: > 100 µM
  TGI: > 100 µM
RPMI-8226 leukemia
  GI50: 12.2 µM
  TGI: 50.9 µM
SW-620 colon
  GI50: > 100 µM
  TGI: > 100 µM
HOP-62 NSCLC
  GI50: > 100 µM
  TGI: > 100 µM
HCT-15 colon
  GI50: > 100 µM
  TGI: > 100 µM
RXF 393 renal
  GI50: > 100 µM
  TGI: > 100 µM
A549 NSCLC
  GI50: > 100 µM
  TGI: > 100 µM
COLO 205 colon
  GI50: > 100 µM
  TGI: > 100 µM
SK-OV-3 ovarian
  GI50: > 100 µM
  TGI: > 100 µM
SNB-75 CNS
  GI50: > 100 µM
  TGI: > 100 µM
SR leukemia
  GI50: 93.8 µM
  TGI: > 100 µM
HCT-116 colon
  GI50: 50.5 µM
  TGI: > 100 µM
HL-60(TB) leukemia
  GI50: > 100 µM
  TGI: > 100 µM
NCI-H226 lung
  GI50: > 100 µM
  TGI: > 100 µM
MOLT-4 leukemia
  GI50: > 100 µM
  TGI: > 100 µM
IGROV1 ovarian
  GI50: > 100 µM
  TGI: > 100 µM
UACC-62 melanoma
  GI50: > 100 µM
  TGI: > 100 µM
UACC-257 melanoma
  GI50: > 100 µM
  TGI: > 100 µM
LOX IMVI melanoma
  GI50: > 100 µM
  TGI: > 100 µM
SN12C renal
  GI50: > 100 µM
  TGI: > 100 µM
ACHN renal
  GI50: > 100 µM
  TGI: > 100 µM

## O=c1onc2c3ccccc3ncn12
DU-145 prostate
  TGI: > 100 µM
A498 renal
  TGI: > 100 µM
OVCAR-3 ovarian
  TGI: > 100 µM
SF-268 CNS
  TGI: > 100 µM
NCI-H522 lung
  TGI: > 100 µM
OVCAR-5 ovarian
  TGI: > 100 µM
HCC-2998 colon
  TGI: > 100 µM
SF-539 CNS
  TGI: > 100 µM
NCI/ADR-RES ovarian
  TGI: > 100 µM
U251 CNS
  TGI: > 100 µM
MDA-MB-231 breast
  TGI: > 100 µM
CAKI-1 renal
  TGI: > 100 µM
SNB-19 CNS
  TGI: > 100 µM
HT29 colon
  TGI: > 100 µM
NCI-H23 lung
  TGI: > 100 µM
SK-MEL-2 melanoma
  TGI: > 100 µM
TK-10 renal
  TGI: > 100 µM
786-0 renal
  TGI: > 100 µM
MDA-MB-435
  TGI: > 100 µM
SF-295 CNS
  TGI: > 100 µM
T-47D breast
  TGI: > 100 µM
M14 melanoma
  TGI: > 100 µM
K-562 leukemia
  TGI: > 100 µM
HS 578T breast
  TGI: > 100 µM
PC-3 prostate
  TGI: > 100 µM
OVCAR-4 ovarian
  TGI: > 100 µM
KM12 colon
  TGI: > 100 µM
BT-549 breast
  TGI: > 100 µM
OVCAR-8 ovarian
  TGI: > 100 µM
EKVX NSCLC
  TGI: > 100 µM
UO-31 renal
  TGI: > 100 µM
SK-MEL-28 melanoma
  TGI: > 100 µM
SK-MEL-5 melanoma
  TGI: > 100 µM
RPMI-8226 leukemia
  TGI: > 100 µM
SW-620 colon
  TGI: > 100 µM
HOP-62 NSCLC
  TGI: > 100 µM
HCT-15 colon
  TGI: > 100 µM
RXF 393 renal
  TGI: > 100 µM
A549 NSCLC
  TGI: > 100 µM
COLO 205 colon
  TGI: > 100 µM
MCF7 breast
  TGI: > 100 µM
SK-OV-3 ovarian
  TGI: > 100 µM
SNB-75 CNS
  TGI: > 100 µM
SR leukemia
  TGI: > 100 µM
HCT-116 colon
  TGI: > 100 µM
NCI-H226 lung
  TGI: > 100 µM
MOLT-4 leukemia
  TGI: > 100 µM
HOP-92 NSCLC
  TGI: > 100 µM
IGROV1 ovarian
  TGI: > 100 µM
UACC-62 melanoma
  TGI: > 100 µM
UACC-257 melanoma
  TGI: > 100 µM
LOX IMVI melanoma
  TGI: > 100 µM
SN12C renal
  TGI: > 100 µM
ACHN renal
  TGI: > 100 µM
CCRF-CEM leukemia
  TGI: > 100 µM
